Experimental data as given in US12702692B2, “Therapeutic use of calcium-activated chloride channel peptide activator” (CENTRE NATIONAL DE LA RECHERCHE SCIENTIFIQUE, priority 2020, dated 2026).

Columns and labels:
[1] = Acute effect on tear fluid secretion (tearing rate, phenol red thread) in naive rats; assay type: in vivo, Sprague-Dawley rats
Experimental: Sprague-Dawley rats (males, around 200 g) were purchased from Charles River and adapted one week before processing the experiment. Two-three rats per cage were housed in a controlled environment of 12 hours intervals of light/dark cycles and free access to food and water. Animal experiments were approved by the Animal Care and Use Committee of the University of Barcelona (CEEA) and the […] de Territori i Sostenibilitat of Generalitat de Catalunya, Catalonia, Spain (319/19; 10935) and followed the ethical guidelines of the International Association for the Study of Pain. […] (also named Nter 13 peptide or […] NO: 2)) and scramble ([…] NO: 7)) peptides were purchased from GenScript Biotech (Leiden, Netherlands) and provided by CNRS. Both peptides were dissolved in Phosphate Buffered Saline (PBS) at 10 mM and used for topical ocular application (5 ul per eye). Tear fluid secretion (tearing rate) was measured using phenol red threads (Zone-Quick, Menicon, Nagoya, Japan) placed on the lower eyelid for 30 s without topical anesthesia (Trost, 2007; Acosta 2013). Tearing rate was determined with an accuracy of ±0.5 mm by measurement of the length of the red portion of the thread. After habituation of the animals, basal tearing rate was measured in both eyes before any topical application of peptides. Then, animals were divided in different groups and a solution containing vehicle (PBS), amiloride (1 mM), peptide N13 or peptide scramble was topically applied to the ocular surface (5 μl) and tearing rate was measured at 1, 3, 6, 12 and 24 h. Tearing rate measurements were done blind to the treatment received by the animals. Data are presented as mean±standard error of the mean (SEM). Statistical differences between different sets of data were assessed by performing repeated measured One-way ANOVA plus Bonferroni's post-tests (each data point in an experimental group vs. basal values) or repeated measured Two-way ANOVA plus Bonferroni's post-tests (each data point in […] group vs. Scramble or Vehicle group; or point in […] or amiloride groups vs. Vehicle group) using Prism 9 (GraphPad Software, San Diego, CA). The significance level was set at p<0.05 in all statistical analyses.

[2] = Tear fluid secretion in dry eye model (surgical removal of exorbital lachrymal gland); assay type: in vivo, Sprague-Dawley rats; conditions: N13ter 10 mM topical
Experimental: Sprague-Dawley rats (males, around 200 g) were purchased from Charles River and adapted one week before processing the experiment. Two-three rats per cage were housed in a controlled environment of 12 hours intervals of light/dark cycles and free access to food and water. Animal experiments were approved by the Animal Care and Use Committee of the University of Barcelona (CEEA) and the Departament de Territori i Sostenibilitat of Generalitat de Catalunya, Catalonia, Spain (319/19; 10935) and followed the ethical guidelines of the International Association for the Study of Pain.
N13ter (also named Nter 13 peptide or N13) ([…] (SEQ ID NO: 2)) and scramble ([…] (SEQ ID NO: 7)) peptides were purchased from GenScript Biotech (Leiden, Netherlands) and provided by CNRS. Both peptides were dissolved in Phosphate Buffered Saline (PBS) at 10 mM and used for topical ocular application (5 ul per eye).
Tear fluid secretion (tearing rate) was measured using phenol red threads (Zone-Quick, Menicon, Nagoya, Japan) placed on the lower eyelid for 30 s without topical anesthesia (Trost, 2007; Acosta 2013). Tearing rate was determined with an accuracy of ±0.5 mm by measurement of the length of the red portion of the thread.
To establish a dry eye model, a similar procedure to those previously described was used (Callejo 2015, Pain; 156(3):483-495, Kovacs, 2016, Pain.; 157(2):399-417). Rats were intraperitoneally anaesthetized with ketamine/xylacine (80:10 mg/kg). […] Tear fluid secretion was measured in both eyes before (basal) and once a week at 1, 2, 3 and 4 weeks after surgery using phenol red threads (Zone-Quick, Menicon, Nagoya, Japan) placed on the lower eyelid for 30 s without topical anesthesia (Trost, 2007; Acosta 2013). Tearing rate was determined with an accuracy of ±0.5 mm by measurement of the length of the red portion of the thread. After tearing rate measurement on week 4, animals were divided in two groups and a solution containing one of the peptides (N13ter or PBS) was topically applied to the ocular surface (5 μl) and tearing rate was measured at 1, 3, 6, 12 and 24 h. […]

LARRSPRSSDGKL (SEQ ID NO: 2) (amino acid residues between positions 30 to 42 of the human KCNE1 protein sequence) [N13ter]
tearing rate at 6 h ([1]; 10 mM topical, 5 μl per eye, n=20 eyes, basal 7.65±0.49 mm (N13ter)): 9.65±0.57 mm | tearing rate at 12 h ([1]; 10 mM topical, 5 μl per eye, n=20 eyes, basal 7.65±0.49 mm (N13ter), 8.10±0.54 mm (Scramble)): 8.85±0.73 mm | tearing rate at 12 h ([1]; N13ter 10 mM topical, vehicle/amiloride study, n=12 eyes, basal 4.53±0.43): 6.66±0.64 mm | time after application at which the enhancing effect becomes significant ([1]; N13ter 10 mM vs scramble peptide): 6 to 12 h | effect on tearing rate compared with Vehicle ([1]; N13ter 10 mM, amiloride 1 mM, vehicle PBS): significant increase in tearing rate | effect on tearing rate ([1]; N13ter vs Scramble study, both 10 mM topical): small but significant increase in tearing rate | effect on tearing rate vs vehicle, pooled data ([1]; all N13ter 10 mM studies pooled, n=32 eyes, normalized to basal): statistically significant effect at 1, 3, 6, 12 and 24 h, obtaining the maximal increase at 6 and 12 h | effect on tearing rate vs vehicle [2]: statistically significant compared to vehicle group | time to return to basal values [2]: ≤ 24 h | tearing rate at 3 h (peak) ([2]; n=14 eyes, 5 weeks basal 4.04±0.49 mm): 6.54±0.78 mm
